Experimental data as given in PubChem BioAssay AID1963448 (Molecular Pharmacology Branch, DTP, NCI, 2024).

System: 616215-338-R-J1-PDC complex spheroid growth, % test/control
Assay: Anticancer human tumor 616215-338-R-J1-PDC patient-derived colon adenocarcinoma cell line growth inhibition [Asc]
Conditions: for IC50: curve of first compound; for viability, T/C: stronger effect = lower value; active = viability on the fitted dose curve at most 10% of control; inactive = the rest
Procedure, shortened: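 Spheroid model: tumor line + HUVEC + hMSC. Single agents and combinations; top conc. at/near clinical Cmax (10 microM if undetermined), half-log dilutions. DMSO stocks at 800-fold test concentration.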

[1] = second compound 0.00316 µM, first compound 0.0316 µM
[2] = second compound 0.00316 µM, first compound 0.1 µM
[3] = second compound 0.01 µM, first compound 0.0316 µM
[4] = second compound 0.01 µM, first compound 0.1 µM
[5] = second compound 0.0316 µM, first compound 0.0316 µM
[6] = second compound 0.0316 µM, first compound 0.1 µM
[7] = second compound 0.1 µM, first compound 0.0316 µM
[8] = second compound 0.1 µM, first compound 0.1 µM
[9] = second compound 0.316 µM, first compound 0.0316 µM
[10] = second compound 0.316 µM, first compound 0.1 µM
[11] = second compound 1 µM, first compound 0.0316 µM
[12] = second compound 1 µM, first compound 0.1 µM
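Also: spheroids exposed to agents for seven days before readout.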

Cc1nc(N2CCC3(CC2)COC(C)C3N)c(CO)nc1Sc1ccnc(N)c1Cl (centres undefined) + CCN1C(C(=O)NC23CCC(C(=O)O)(CC2)CC3)C(c2cccc(Cl)c2F)C2(C(=O)Nc3cc(Cl)ccc32)C12CCCCC2
303 nM: IC50 (second compound 0.3 µM)
40.3 nM: IC50 (second compound 3 µM)
> 3000 nM: IC50 (second compound 0.03 µM) | IC50 (second compound 0.0949 µM)
inactive: viability, T/C (second compound 0.03 µM, first compound 0.00949 µM) 99.4% | viability, T/C (second compound 0.03 µM, first compound 0.03 µM) 102% | viability, T/C (second compound 0.03 µM, first compound 0.0949 µM) 98.4% | viability, T/C (second compound 0.03 µM, first compound 0.3 µM) 91.8% | viability, T/C (second compound 0.03 µM, first compound 0.949 µM) 86.3% | viability, T/C (second compound 0.03 µM, first compound 3 µM) 74.4% | viability, T/C (second compound 0.0949 µM, first compound 0.00949 µM) 101% | viability, T/C (second compound 0.0949 µM, first compound 0.03 µM) 89.2% | viability, T/C (second compound 0.0949 µM, first compound 0.0949 µM) 84.1% | viability, T/C (second compound 0.0949 µM, first compound 0.3 µM) 87.2% | viability, T/C (second compound 0.0949 µM, first compound 0.949 µM) 80.5% | viability, T/C (second compound 0.0949 µM, first compound 3 µM) 64.7% | viability, T/C (second compound 0.3 µM, first compound 0.00949 µM) 69.8% | viability, T/C (second compound 0.3 µM, first compound 0.03 µM) 65.6% | viability, T/C (second compound 0.3 µM, first compound 0.0949 µM) 65.1% | viability, T/C (second compound 0.3 µM, first compound 0.3 µM) 49.4% | viability, T/C (second compound 0.3 µM, first compound 0.949 µM) 39.2% | viability, T/C (second compound 0.3 µM, first compound 3 µM) 35% | viability, T/C (second compound 0.949 µM, first compound 0.00949 µM) 65.9% | viability, T/C (second compound 0.949 µM, first compound 0.03 µM) 65% | viability, T/C (second compound 0.949 µM, first compound 0.0949 µM) 66.6% | viability, T/C (second compound 0.949 µM, first compound 0.3 µM) 48.3% | viability, T/C (second compound 0.949 µM, first compound 0.949 µM) 37.7% | viability, T/C (second compound 0.949 µM, first compound 3 µM) 24.8% | viability, T/C (second compound 3 µM, first compound 0.00949 µM) 53.3% | viability, T/C (second compound 3 µM, first compound 0.03 µM) 49.2% | viability, T/C (second compound 3 µM, first compound 0.0949 µM) 47.8% | viability, T/C (second compound 3 µM, first compound 0.3 µM) 38.8% | viability, T/C (second compound 3 µM, first compound 0.949 µM) 23.9% | viability, T/C (second compound 3 µM, first compound 3 µM) 11.6%
338 nM: IC50 (second compound 0.949 µM)

Cn1ncnc1[C@H]1c2n[nH]c(=O)c3cc(F)cc(c23)N[C@@H]1c1ccc(F)cc1 + CNC(C)C(=O)NC1CN(S(=O)(=O)c2cccc(S(=O)(=O)N3CCC4CCC(C(=O)NC(c5ccccc5)c5ccccc5)N4C(=O)C(NC(=O)C(C)NC)C3)c2)CCC2CCC(C(=O)NC(c3ccccc3)c3ccccc3)N2C1=O
inactive: viability, T/C (second compound 0.00316 µM, first compound 0.000316 µM) 10.7% | viability, T/C (second compound 0.01 µM, first compound 0.000316 µM) 95% | viability, T/C (second compound 0.01 µM, first compound 0.001 µM) 101% | viability, T/C (second compound 0.01 µM, first compound 0.00316 µM) 97.2% | viability, T/C (second compound 0.01 µM, first compound 0.01 µM) 92.4% | viability, T/C [3] 95.1% | viability, T/C [4] 98.5% | viability, T/C (second compound 0.0316 µM, first compound 0.000316 µM) 91.5% | viability, T/C (second compound 0.0316 µM, first compound 0.001 µM) 95.5% | viability, T/C (second compound 0.0316 µM, first compound 0.00316 µM) 101% | viability, T/C (second compound 0.0316 µM, first compound 0.01 µM) 102% | viability, T/C [5] 100% | viability, T/C [6] 110% | viability, T/C (second compound 0.1 µM, first compound 0.000316 µM) 106% | viability, T/C (second compound 0.1 µM, first compound 0.001 µM) 108% | viability, T/C (second compound 0.1 µM, first compound 0.00316 µM) 103% | viability, T/C (second compound 0.1 µM, first compound 0.01 µM) 108% | viability, T/C [7] 102% | viability, T/C [8] 103% | viability, T/C (second compound 0.316 µM, first compound 0.000316 µM) 97.6% | viability, T/C (second compound 0.316 µM, first compound 0.001 µM) 104% | viability, T/C (second compound 0.316 µM, first compound 0.00316 µM) 102% | viability, T/C (second compound 0.316 µM, first compound 0.01 µM) 104% | viability, T/C [9] 102% | viability, T/C [10] 98.4% | viability, T/C (second compound 1 µM, first compound 0.000316 µM) 107% | viability, T/C (second compound 1 µM, first compound 0.001 µM) 99.2% | viability, T/C (second compound 1 µM, first compound 0.00316 µM) 97.2% | viability, T/C (second compound 1 µM, first compound 0.01 µM) 99.2% | viability, T/C [11] 96% | viability, T/C [12] 101%
active: viability, T/C (second compound 0.00316 µM, first compound 0.001 µM) 10.5% | viability, T/C (second compound 0.00316 µM, first compound 0.00316 µM) 7.58% | viability, T/C (second compound 0.00316 µM, first compound 0.01 µM) 9.25% | viability, T/C [1] 9.45% | viability, T/C [2] 8.48%
> 100 nM: IC50 (second compound 0.01 µM) | IC50 (second compound 0.0316 µM) | IC50 (second compound 0.1 µM) | IC50 (second compound 0.316 µM) | IC50 (second compound 1 µM)
< 0.316 nM: IC50 (second compound 0.00316 µM)

O=C(c1cc(Cc2n[nH]c(=O)c3ccccc23)ccc1F)N1CCN(C(=O)C2CC2)CC1 + CNC(C)C(=O)NC1CN(S(=O)(=O)c2cccc(S(=O)(=O)N3CCC4CCC(C(=O)NC(c5ccccc5)c5ccccc5)N4C(=O)C(NC(=O)C(C)NC)C3)c2)CCC2CCC(C(=O)NC(c3ccccc3)c3ccccc3)N2C1=O
< 31.6 nM: IC50 (second compound 0.00316 µM)
active: viability, T/C [1] 8.47% | viability, T/C [2] 8.86% | viability, T/C (second compound 0.00316 µM, first compound 0.316 µM) 12.9% | viability, T/C (second compound 0.00316 µM, first compound 1 µM) 10.3% | viability, T/C (second compound 0.00316 µM, first compound 3.16 µM) 8.76% | viability, T/C (second compound 0.00316 µM, first compound 10 µM) 7.09%
> 10000 nM: IC50 (second compound 0.01 µM) | IC50 (second compound 0.0316 µM) | IC50 (second compound 0.1 µM) | IC50 (second compound 0.316 µM) | IC50 (second compound 1 µM)
inactive: viability, T/C [3] 93.3% | viability, T/C [4] 88.3% | viability, T/C (second compound 0.01 µM, first compound 0.316 µM) 97.2% | viability, T/C (second compound 0.01 µM, first compound 1 µM) 95.6% | viability, T/C (second compound 0.01 µM, first compound 3.16 µM) 80.8% | viability, T/C (second compound 0.01 µM, first compound 10 µM) 76.9% | viability, T/C [5] 103% | viability, T/C [6] 91% | viability, T/C (second compound 0.0316 µM, first compound 0.316 µM) 102% | viability, T/C (second compound 0.0316 µM, first compound 1 µM) 103% | viability, T/C (second compound 0.0316 µM, first compound 3.16 µM) 94.9% | viability, T/C (second compound 0.0316 µM, first compound 10 µM) 78.1% | viability, T/C [7] 100% | viability, T/C [8] 101% | viability, T/C (second compound 0.1 µM, first compound 0.316 µM) 94.2% | viability, T/C (second compound 0.1 µM, first compound 1 µM) 95.5% | viability, T/C (second compound 0.1 µM, first compound 3.16 µM) 95.2% | viability, T/C (second compound 0.1 µM, first compound 10 µM) 78% | viability, T/C [9] 104% | viability, T/C [10] 98% | viability, T/C (second compound 0.316 µM, first compound 0.316 µM) 105% | viability, T/C (second compound 0.316 µM, first compound 1 µM) 106% | viability, T/C (second compound 0.316 µM, first compound 3.16 µM) 100% | viability, T/C (second compound 0.316 µM, first compound 10 µM) 69.9% | viability, T/C [11] 102% | viability, T/C [12] 102% | viability, T/C (second compound 1 µM, first compound 0.316 µM) 96.2% | viability, T/C (second compound 1 µM, first compound 1 µM) 97.1% | viability, T/C (second compound 1 µM, first compound 3.16 µM) 94.1% | viability, T/C (second compound 1 µM, first compound 10 µM) 80.9%
